Assay [1] has as its target PCAF (p300/CBP-associated factor) (Homo sapiens, UniProt Q92831). The assay can be described thus: PCAF coupled spectrophotometric assay. The assay is classed as biochemical. The note with it: 10 μM compound; read-out: Percent inhibition of acetyltransferase, PCAF.
Another assay relates to WM35 melanoma cells. The assay can be described thus: apoptosis, annexin V and propidium iodide FACS. In kind it is cell-based, human. The note with it: 72 hours, low serum concentrations. Here is the method:
FIG. 14A includes scatter plots. […] WM35 melanoma cells were also treated with camptothecin as a positive control for apoptosis. FIGS. 14B and 14C include images of the treated cells stained for senescence-associated beta galactosidase.

The subject of assay [2] is WM983A melanoma cells. The assay can be described thus: 3H-thymidine incorporation, WM983A. The note with it: Homo sapiens, read-out: IC50 (proliferation, 3H-thymidine incorporation). On the technique in general: Incorporation of labelled thymidine or its analogues reports DNA synthesis.
In another assay the test system is U87 glioblastoma cells. The assay can be described thus: AlamarBlue growth inhibition, U87. The assay is classed as cell-based. The following applies: U87, 72 hours. Here is the method: (§1) Dose response curves were generated using the AlamarBlue® assay (Invitrogen, Carlsbad, Calif.).
(§2) When inhibition was assessed using the AlamarBlue® assay (Invitrogen, Carlsbad, Calif.), cells were initially seeded at 500 cells per well in a 96-well plate. AlamarBlue® is a non-toxic reagent that measures cellular metabolic activity. Its main ingredient is resazurin, a non-fluorescent indicator dye that is reduced to bright red-fluorescent resorufin in metabolically active cells. AlamarBlue® was added to growth medium at 1/10 of the total volume (e.g., 20 μl in 200 μl total volume). […] Fluorescence reading was taken from the same plate every day for 5 days to ensure that the saturation point was not reached. Fluorescence intensity is proportional to the number of live cells in the plate.

Assay [3] addresses AANAT (arylalkylamine N-acetyltransferase) (Ovis aries, UniProt Q29495). Kind of assay: AANAT coupled spectrophotometric assay. The following applies: 10 μM compound; read-out: Percent inhibition of acetyltransferase, AANAT. The assay is classed as biochemical.
Another assay concerns Mel-1 melanoma cells. Kind of assay: combination with chemotherapy, total cell number. The assay is classed as cell-based. The note with it: 2 μM C646, 24 hours before chemotherapy agent. Here is the method: The cells were grown for 24 hours in medium. The cells were given fresh medium and either 1 μM of cisplatin or 200 μM of temozolamide was added. Total cell number was counted on Day 0, at 24 hours, and 48 hours after addition of cisplatin or temozolamide.
After 24 hours, the treated and mock-treated cells were given fresh medium, and the cells were treated with cisplatin or temozolamide for 48 hours.

The next assay has as its system LN382 glioblastoma cells. The assay can be described thus: AlamarBlue growth inhibition, LN382. The assay is classed as cell-based. The note with it: LN382, 72 hours. As for the experimental part: as §1, §2
In general terms: Alamar Blue is a resazurin reagent that responds to reducing activity.

For assay [4], the system named is WM983A melanoma cells. The assay can be described thus: cell cycle analysis, propidium iodide FACS. In kind it is cell-based, human. The following applies: 48 hours. As for the experimental part:
The degree of growth arrest observed in these experiments corresponds with the decrease in ^3H-thymidine incorporation described above.
Cells treated with C646 or DMSO were stained with propidium iodide (PI). Briefly, equal number of cells (greater than 10 6) in 0.5 ml PBS were fixed in 70% ethanol for at least 2 h at 4° C. A stock staining solution containing 10 ml of 0.1% Triton X-100 in PBS, 400 μl of RNase cocktail (equivalent of −200 units of RNase A) (Ambion), and 200 μl of 1 mg/ml PI was prepared. Fixed cells were spun at 200 g for 5 min (Beckman Coulter Allegra® X-12R, with an SX4750A rotor), re-hydrated in 5 ml PBS, and spun again to remove all traces of ethanol. Cells were stained with 1 ml staining solution for 20 min at 37° C., then immediately analyzed on a FACSCalibur flow cytometer (BD Biosciences) at the Johns Hopkins Flow Cytometry Core Facility. Data acquisition and analysis were performed with the CellQuest software (BD). WinMDI 2.9 (http://facs.scripps.edu.software.html) was also used for data presentation.

The target in a further assay is T1, yeast GCN5 (Saccharomyces cerevisiae, UniProt Q03330).
T1 construct: made in house
The assay can be described thus: GCN5 direct radioactive HAT assay. In kind it is biochemical. The note with it: 10 μM compound; read-out: Percent inhibition of acetyltransferase, GCN5. Here is the method: PCAF reactions were performed in 100 mM HEPES, pH 7.9, and contained 200 μM TPP, 5 mM MgCl2, 1 mM DTT, 50 mM NaCl, 0.05 mg/mL BSA, 200 μM NAD, 2.4 mM α-KG, 30 μM acetyl-CoA, 0.037 units α-KGDH, 3.3% DMSO, and 10 μM inhibitor. Reactions took place at 30° C. Reactions were initiated by addition of 10 nM PCAF and were followed at 340 nm over the linear portion of the curve below 10% turnover. AANAT reactions were performed in 100 mM NH4 OAc, pH 6.8, and contained 200 μM TPP, 5 mM MgCl2, 1 mM DTT, 50 mM NaCl, 0.05 mg/mL BSA, 200 μM NAD, 2.4 mM α-KG, 200 μM AcCoA, 0.1 units α-KGDH, 3.3% DMSO, and 10 μM inhibitor. Reactions took place at 25° C. Reactions were initiated with addition of 65 nM AANAT, and followed at 340 nm, as above. Percent inhibition values were compared to those with p300, which were repeated using the protocol given above. […]
HAT assays with yeast GCN5, SAS complex, MOZ, and Rtt109/Vps75 complex used the direct radioactive assay described above. […] The amount of enzyme used in each assay was estimated by comparing Coomassie Blue staining of samples with bovine serum albumin standards, analyzed by SDS-PAGE. […] The rate of ^14C-incorporation into histone H3 was quantified by autoradiography. […]

Molecules are shown by their SMILES.

T1 sequence (Q03330 whole entry): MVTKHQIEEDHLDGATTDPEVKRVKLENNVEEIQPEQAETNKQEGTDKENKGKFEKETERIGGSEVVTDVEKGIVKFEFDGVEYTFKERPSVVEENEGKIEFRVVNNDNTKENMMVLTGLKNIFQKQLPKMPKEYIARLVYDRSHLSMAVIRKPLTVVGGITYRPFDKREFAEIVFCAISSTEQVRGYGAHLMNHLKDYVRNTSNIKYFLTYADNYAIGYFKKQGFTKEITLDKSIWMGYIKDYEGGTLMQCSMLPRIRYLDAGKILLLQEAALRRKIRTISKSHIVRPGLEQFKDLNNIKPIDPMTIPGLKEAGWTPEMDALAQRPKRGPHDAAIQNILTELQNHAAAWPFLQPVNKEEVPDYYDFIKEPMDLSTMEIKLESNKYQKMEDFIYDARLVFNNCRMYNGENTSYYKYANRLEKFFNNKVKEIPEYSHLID
Sequence of PCAF (p300/CBP-associated factor) (Q92831 493-658 limits assumed, species assumed): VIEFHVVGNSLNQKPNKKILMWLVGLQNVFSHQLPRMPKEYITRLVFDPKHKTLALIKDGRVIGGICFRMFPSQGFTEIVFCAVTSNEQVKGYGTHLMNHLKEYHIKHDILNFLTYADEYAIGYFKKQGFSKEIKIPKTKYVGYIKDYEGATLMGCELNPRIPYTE
Sequence of AANAT (arylalkylamine N-acetyltransferase) (Q29495 whole entry): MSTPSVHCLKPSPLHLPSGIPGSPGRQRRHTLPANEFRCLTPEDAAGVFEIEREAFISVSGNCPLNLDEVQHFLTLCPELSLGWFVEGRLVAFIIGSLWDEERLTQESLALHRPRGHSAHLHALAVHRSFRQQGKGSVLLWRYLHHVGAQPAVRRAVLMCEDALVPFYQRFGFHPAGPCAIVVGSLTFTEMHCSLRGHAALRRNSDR

The inhibition is the percentage by which the read-out fell short of the control. With `CC1=NN(c2ccc(C(=O)O)cc2)C(=O)C1=Cc1ccc(-c2cc(C)c(C)cc2[N+](=O)[O-])o1` [Compound C646, 4-(4,5-dihydro-3-methyl-4-((5-(4,5-dimethyl-2-nitrophenyl)furan-2-yl)methylene)-5-oxopyrazol-1-yl)benzoic acid], the inhibition at 10 µM (in assay [1]; in [3]; at yeast GCN5) was under 10% throughout. The apoptosis entry in the assay with WM35 melanoma cells was “induced WM35 cell apoptosis”. In addition, the IC50 with WM983A melanoma cells [2] is 10 to 20 µM; in the assay on U87 glioblastoma cells, 15.1 µM; with LN382 glioblastoma cells it was 35.5 µM. The sensitization to chemotherapy result with Mel-1 melanoma cells is “sensitized the melanoma cells to temozolamide”. For the same compound, in the assay on WM983A melanoma cells [4], the cell cycle distribution entry was “decreased the number of cells in S and G2 phase”.

Source of the values: patent US9005670B2, “Use of histone acetyltransferase inhibitors as novel anti-cancer therapies” (The Johns Hopkins University, priority 2010, dated 2015).
